Entries after “also recorded” stand apart in the source; their conditions may differ. Where no end group is shown, it is not given here.
Assays:
bone marrow [1] = experiment: in vivo phage display screening; sequencing of phage plaques after the 5th round of injection; design: species or system C57BU6 mice; conditions: for Sequence copy number C BM: control bone marrow; for Sequence copy number C BM / Sequence copy number Irr BM: 20 plaques per organ isolate; for Sequence copy number Irr BM: irradiated bone marrow; for Sequence copy number Lung: 20 plaques per organ isolate (Table III); for R. Leg (IRR) / Lung / L. Leg (Non-IRR): number of sequenced plaques with this sequence; for R. Leg (IRR): bone marrow of irradiated right leg; for R. Leg (IRR) / L. Leg (Non-IRR): after last injection; for Lung: after last injection (Table II); for L. Leg (Non-IRR): bone marrow of non-irradiated left leg
Procedure: FIG. 2 illustrates schematic view of a phage screening strategy in accordance with an aspect of the application. The entire procedure was repeated 5 times to eliminate non-specific phage. On the fifth extraction, phage plaques were isolated from multiple organs and individually collected, expanded and sequenced.
(§1) C57BU6 mice had their right leg irradiated then, 24 h later, a phage library was injected and allowed to circulate, bone marrow was then harvested and the phage pool isolated. Phage were amplified and injected into the next mouse, and this process repeated a total of five times. The phage pool was then analysed from irradiated and non-irradiated legs and the sequences determined. Individual phage were then amplified, injected into irradiated mice and tissue distribution assessed. Table 1 lists the different peptides that came out of the sequencing from plaques plated after the last injection.
The screening methodology employed for isolating bone marrow-binding peptide sequences via phage display is illustrated in FIG. 2. Included in our screening strategy was the idea of obtaining some bone marrow-binding peptides that had high affinity for irradiated bone marrow, which, although not a required feature for targeting UCB cells to marrow, could be useful for engraftment into hosts where radiation treatment is part of the conditioning regimen. After the 5th round of phage injections, phage was isolated from lungs and from irradiated and non-irradiated bone marrow and sequenced (20 plaques per organ isolate).

bone marrow [2] = experiment: distribution of individual phage injected into mice whose right leg was irradiated (FIG. 1); type: in vivo
Procedure: FIG. 1 illustrates the distribution of individual phage injected into mice whose right leg was irradiated. The amount of phage was normalized to tissue mass.
as §1

bone marrow [3] = experiment: phage playoff screen, phage titer (PFU) per gram of tissue (FIG. 3); type: in vivo; conditions: equimolar phage injected, single mouse
Procedure: FIG. 3 illustrates a chart showing the results of a phage “playoff screen” where equimolar amounts of phage were injected into a mouse and plaque forming units (PFU) quantified.
We conducted a “playoff screen” to confirm bone marrow-targeting specificity. To perform a Playoff Screen, selected phage, along with a randomly selected phage from the pre-selected phage pool, were injected at equi-molar amounts into irradiated and non-irradiated mice, the bone marrows extracted, weighed and assayed for phage titer per gram of tissue; an example of the results of a Playoff Screen is shown in FIG. 3. While the data shown here are from only a single mouse, the results were important in several aspects.

UCB CD34+ cells [4] = experiment: cell coating by CCP, flow cytometry using FITC-labeled Streptavidin; type: cell-based, human
Procedure: (§2) The CCP molecule has three primary components: One, the targeting peptide sequence; two, a linker sequence containing a biotinylated amino acid; and, three a lipid moiety for integration into the cell membrane (FIG. 4). Once synthesized, all CCP molecules are tested for purity and molecular weight using HPLC and mass spectroscopy (located in the Puget Sound Blood Center); for their ability to coat UCB CD34+ cells using flow cytometry, for any toxicity effects on progenitors using MTT and hematopoietic colony forming unit (CFU) assays.
(§3) Sequences from this initial round of selection (CALFFV (SEQ ID NO:1), RAPGGET (SEQ ID NO:41), RKVVVGS (SEQ ID NO: 4) and control RSR) were contracted out to commercial vendors for synthesis into CCPs. One single-hit sequence from bone marrow, RKVVVGS (SEQ ID NO:4), termed “RKV”, was successfully synthesized, purified, and its molecular weight validated by mass spectroscopy.

UCB CD34+ cells [5] = experiment: MTT assay, toxicity on coated cells; type: cell-based, human; conditions: data not shown
Procedure: as §2, §3

bone marrow [6] = experiment: spleen and bone marrow-targeting of UCB cells coated with RKV-CCP, qRT-PCR of human ALU sequences (FIG. 5); type: in vivo, mice; conditions: 3 weeks post injection
Source text: FIG. 5 illustrates a chart showing ALU qRT-PCR quantification of human UCB cell numbers. The y-axis indicates human cell numbers calculated from a human cell standard curve. RKV=RKV-coated human UCB cells; NC=Non-coated human UCB cells; P=Plasma-injected. ρ values are from Student's t test between RKV and NC samples. The squares indicate the individual values for the RKV samples.
Preliminary spleen and bone marrow-targeting of UCB cells has already been conducted with the RKV peptides as a CCP molecule (RKV-CCP). UCB cells were isolated using a discontinuous Percol gradient, red blood cells were lysed with ammonium chloride, and the cells were incubated at 37° C. for a total of 10 min with RKV-CCP molecule (30 μg/ml), centrifuged, washed and stored at 4° C. until injected. Progenitors from two separate UCB units were coated and tested. Mice were sub-lethally irradiated with 250 cGy and injected with 1.0×10^8 RKV-CCP coated or non-coated UCB cells, or plasma-only control; 2 mice per group per UCB sample for a total of 4 mice per injection group. Bone marrow, spleen and blood were collected 3 weeks post injection. qRT-PCR was then conducted to assess human ALU sequences. The number of human cells found in the marrow was derived from a qRT-PCR standard curve of known amounts of human cell mixed with murine […] cells. […] Plasma-injected mice had essentially no signal.

spleen = experiment: isolated phage injected into whole body irradiated mice; type: in vivo

Substance: CALFFV (listed as Homo sapiens)
- Sequence copy number C BM (bone marrow [1]): 0
- Sequence copy number Irr BM (bone marrow [1]): 4
- Sequence copy number Lung (bone marrow [1]): 1
- R. Leg (IRR) (bone marrow [1]): 4
- Lung (bone marrow [1]): 1

Substance: CGYREVSSAALE (listed as Homo sapiens) [-CGYREVSSAALE]
- R. Leg (IRR) (bone marrow [1]): 1

Substance: DDQSVSRKLAAALE (listed as Homo sapiens)
- Sequence copy number C BM (bone marrow [1]): 0
- Sequence copy number Irr BM (bone marrow [1]): 3
- Sequence copy number Lung (bone marrow [1]): 0
- R. Leg (IRR) (bone marrow [1]): 3
- increased signal in irradiated leg (bone marrow [2]; individual phage, irradiated versus non-irradiated leg, in words): exception

Substance: DGRSSRG (listed as Homo sapiens)
- Lung (bone marrow [1]): 1

Substance: DLAHDALLAWGPPSINCLTLGAP (listed as Homo sapiens)
- R. Leg (IRR) (bone marrow [1]): 1

Substance: DRN-RSA (DRNRSA; listed as Homo sapiens)
- Lung (bone marrow [1]): 1

Substance: EGGNEV (listed as Homo sapiens) [EGGN-EV]
- L. Leg (Non-IRR) (bone marrow [1]): 1
- Lung (bone marrow [1]): 1

Substance: FSGRRLVSPRPHPSN (listed as Homo sapiens)
- Lung (bone marrow [1]): 1

Substance: GDRRDSR (listed as Homo sapiens)
- L. Leg (Non-IRR) (bone marrow [1]): 1

Substance: GGL-RGGKLAAALE (GGLRGGKLAAALE; listed as Homo sapiens)
- Lung (bone marrow [1]): 1

Substance: GGNANRR (listed as Homo sapiens)
- Lung (bone marrow [1]): 1

Substance: GIRVMEK (listed as Homo sapiens)
- Sequence copy number C BM (bone marrow [1]): 0
- Sequence copy number Irr BM (bone marrow [1]): 2
- Sequence copy number Lung (bone marrow [1]): 0
- R. Leg (IRR) (bone marrow [1]): 2

Substance: GMKGVQL (listed as Homo sapiens)
- Lung (bone marrow [1]): 1

Substance: GPGLKEM (listed as Homo sapiens)
- L. Leg (Non-IRR) (bone marrow [1]): 4

Substance: GRELRGQ (listed as Homo sapiens)
- L. Leg (Non-IRR) (bone marrow [1]): 1

Substance: GRGDR-R (GRGDRR; listed as Homo sapiens)
- Lung (bone marrow [1]): 1

Substance: GRRGGAKPAVASRR (listed as Homo sapiens) [GRR-GGAKPAVASRR]
- L. Leg (Non-IRR) (bone marrow [1]): 1

Substance: KSMARHR (listed as Homo sapiens)
- L. Leg (Non-IRR) (bone marrow [1]): 1
- Lung (bone marrow [1]): 1

Substance: KVSD-SL (KVSDSL; listed as Homo sapiens)
- Lung (bone marrow [1]): 1

Substance: LDSSLFN (listed as Homo sapiens)
- L. Leg (Non-IRR) (bone marrow [1]): 1

Substance: LSTNRFV (listed as Homo sapiens)
- L. Leg (Non-IRR) (bone marrow [1]): 1

Substance: LSTRVER (listed as Homo sapiens)
- Lung (bone marrow [1]): 1

Substance: QARNGGR (listed as Homo sapiens)
- Sequence copy number C BM (bone marrow [1]): 0
- bone marrow specificity in the sequencing screen (bone marrow [1]; in words): no bone marrow specificity
- Sequence copy number Irr BM (bone marrow [1]): 0
- Sequence copy number Lung (bone marrow [1]): 1
- phage levels / binding in lung (bone marrow [3]): high levels; also recorded: highest level
- phage levels / titers in bone marrow (bone marrow [3]): low levels
- titers in the lung compared with bone marrow (bone marrow [3]): greater

Substance: QNDSASG (listed as Homo sapiens)
- Lung (bone marrow [1]): 1

Substance: RAANTAR (listed as Homo sapiens)
- Lung (bone marrow [1]): 1

Substance: RAPGGET (listed as Homo sapiens)
- Sequence copy number C BM (bone marrow [1]): 0
- Sequence copy number Irr BM (bone marrow [1]): 1
- Sequence copy number Lung (bone marrow [1]): 0

Substance: RGLQTGLEGSAWLLECGRA (listed as Homo sapiens)
- R. Leg (IRR) (bone marrow [1]): 1

Substance: RKV: cell coating peptide: RKVVVGS targeting sequence, spacer with biotin-labeled amino acid, lipid moiety for membrane insertion (also: spacer with biotin-labeled amino acid, end not given here, lipid moiety for membrane insertion, end not given here; listed as Homo sapiens)
- ability to coat cells (UCB CD34+ cells [4]): able to coat cells efficiently
- toxic effects on coated cells (MTT) (UCB CD34+ cells [5]): no toxic effects
- human-derived cells in bone marrow compared to control non-coated cells (bone marrow [6]; 1.0×10^8 UCB cells coated at 30 μg/ml, 250 cGy, ρ value 0.09): ~7 ×
- UCB cell numbers in bone marrow compared to spleen (bone marrow [6]): approximately 6 times
- UCB cell numbers in the spleen compared to uncoated UCB cells (bone marrow [6]; statistically significant): enhanced

Substance: RKVVVGS (listed as Homo sapiens)
- Sequence copy number C BM (bone marrow [1]): 0
- Sequence copy number Irr BM (bone marrow [1]): 1
- Sequence copy number Lung (bone marrow [1]): 0
- R. Leg (IRR) (bone marrow [1]): 1
- binding in irradiated legs (bone marrow [2]; in words): marked increase in binding
- binding in non-irradiated legs (bone marrow [2]; in words): minimal binding
- signal in the irradiated leg relative to non-irradiated leg (bone marrow [2]; individual phage, right leg irradiated, phage normalized to tissue mass): approximately 15 ×
- binding to spleen (spleen): highly increased binding

Substance: RQDGRHG (listed as Homo sapiens)
- Sequence copy number C BM (bone marrow [1]): 0
- Sequence copy number Irr BM (bone marrow [1]): 1
- Sequence copy number Lung (bone marrow [1]): 0
- R. Leg (IRR) (bone marrow [1]): 1

Substance: RRSGKLL (listed as Homo sapiens)
- L. Leg (Non-IRR) (bone marrow [1]): 2

Substance: SIGHRRE (listed as Homo sapiens)
- Sequence copy number C BM (bone marrow [1]): 4
- Sequence copy number Irr BM (bone marrow [1]): 0
- Sequence copy number Lung (bone marrow [1]): 0
- L. Leg (Non-IRR) (bone marrow [1]): 1
- phage levels / titers in bone marrow (bone marrow [3]): minimal

Substance: SSYALI (listed as Homo sapiens) [SS-YALI]
- Sequence copy number C BM (bone marrow [1]): 1
- Sequence copy number Irr BM (bone marrow [1]): 5
- Sequence copy number Lung (bone marrow [1]): 0
- R. Leg (IRR) (bone marrow [1]): 5

Substance: SVAPLRR (listed as Homo sapiens)
- Lung (bone marrow [1]): 1

Substance: TS-QLWC (TSQLWC; listed as Homo sapiens)
- L. Leg (Non-IRR) (bone marrow [1]): 4

Substance: TSLKDDR (listed as Homo sapiens)
- Lung (bone marrow [1]): 1

Substance: VFSGVEVSSRPHSSN (listed as Homo sapiens)
- Lung (bone marrow [1]): 1

Substance: VGPSVGP (listed as Homo sapiens)
- L. Leg (Non-IRR) (bone marrow [1]): 1

Substance: VGVRIGGSLRPHSSN (listed as Homo sapiens)
- Lung (bone marrow [1]): 1

Substance: VSGSVR (listed as Homo sapiens)
- Lung (bone marrow [1]): 1

Substance: VSKRDL (listed as Homo sapiens) [V-SKRDL]
- R. Leg (IRR) (bone marrow [1]): 1

Substance: VVRAK (listed as Homo sapiens)
- Lung (bone marrow [1]): 1

Source: patent US8669346B2, “Bone marrow targeting peptides” (Case Western Reserve University, priority 2010, dated 2014)
